GI50 and TGI data for 14 compounds are collected here from PubChem BioAssay (NCI).

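Following 48 hours of exposure in 96-well plates, responses at five concentrations were used to interpolate endpoints linearly. The concentration for 50% growth inhibition is given as GI50. The concentration for full growth arrest is given as TGI.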 Where only a bound is given, the exact number is not on record here.

Some test systems named below: COLO 205 colon; HT29 colon; NCI-H522 lung; OVCAR-4 ovarian; RPMI-8226 leukemia; SF-295 CNS; SW-620 colon; U251 CNS; UACC-257 melanoma; UACC-62 melanoma.
Common to all, as to experiment: growth of human tumour cells (NCI), 48 h

As for `CC(C)COC(=O)c1ccc2[nH]c(O)c(C=Nc3ccc(S(N)(=O)=O)cc3)c2c1`, the GI50 in the assay with COLO 205 colon was 0.532 µM; with HT29 colon, 1.63 µM; in the assay with NCI-H522 lung, 4.03 µM; in the assay with OVCAR-4 ovarian it was 2.39 µM; in the assay on RPMI-8226 leukemia, 2.55 µM; in the assay with SF-295 CNS it was 1.77 µM. Moreover, the GI50 with SW-620 colon was 0.671 µM; in the assay on U251 CNS, 0.879 µM; in the assay on UACC-257 melanoma, 3.99 µM; in the assay with UACC-62 melanoma, 1.91 µM. In addition, the TGI came out at 1.91 µM in the assay on COLO 205 colon; 5.21 µM in the assay with HT29 colon; 8.5 µM in the assay on NCI-H522 lung; 7.79 µM in the assay on OVCAR-4 ovarian; 18.8 µM in the assay with RPMI-8226 leukemia; 8.46 µM with SF-295 CNS. The TGI in the assay on SW-620 colon is 3.83 µM; in the assay with U251 CNS, 4.13 µM; in the assay with UACC-257 melanoma it was 9.44 µM; in the assay on UACC-62 melanoma it was 6.08 µM.

Take `COc1ccc(Nc2cc(C)nc(N3CCN(c4ccnc5cc(Cl)ccc45)CC3)n2)cc1`: the GI50 was 1.96 µM with COLO 205 colon; 2.83 µM in the assay on HT29 colon; 2.02 µM in the assay on NCI-H522 lung; 1.76 µM with OVCAR-4 ovarian; 2.18 µM in the assay with RPMI-8226 leukemia; 1.28 µM in the assay on SF-295 CNS. The GI50 was 2.73 µM in the assay with SW-620 colon, 3.06 µM in the assay with U251 CNS, 3.34 µM with UACC-257 melanoma and 1.71 µM with UACC-62 melanoma. Moreover, the TGI in the assay with COLO 205 colon was 3.96 µM; in the assay on HT29 colon it was 8.11 µM; with NCI-H522 lung it was 5.27 µM; in the assay with OVCAR-4 ovarian, above 100 µM; in the assay with RPMI-8226 leukemia, 8.91 µM; in the assay on SF-295 CNS it was 7.68 µM. The TGI with SW-620 colon was 13.2 µM; in the assay with U251 CNS, 36.6 µM; in the assay with UACC-257 melanoma, above 100 µM; in the assay with UACC-62 melanoma, 5.93 µM.

Consider `N#CC1=C(Cl)NC(Cl)=C(C#N)C1c1c(Cl)cccc1Cl`, for which the TGI was 32.8 µM in the assay with COLO 205 colon; above 100 µM in the assay with HT29 colon; 38.1 µM in the assay with NCI-H522 lung; 46.4 µM with RPMI-8226 leukemia; above 100 µM with SF-295 CNS; 27 µM in the assay on SW-620 colon. For the same compound, the results for the TGI in the assay with U251 CNS, in the assay with UACC-257 melanoma and in the assay on UACC-62 melanoma were 48.5 µM, 50.3 µM and 73.4 µM, respectively.

Consider `CCC(Oc1ccc(OC)c2ccccc(=O)c12)C(=O)O` (centres undefined), for which the TGI in the assay on COLO 205 colon, with HT29 colon, in the assay on NCI-H522 lung, in the assay with OVCAR-4 ovarian, with RPMI-8226 leukemia and with SF-295 CNS was above 100 µM each time. Further, the TGI in the assay on SW-620 colon, in the assay with U251 CNS, in the assay with UACC-257 melanoma and in the assay on UACC-62 melanoma was above 100 µM throughout.

Turning to `CCCNc1nc2ccccc2c2c1S(=O)(=O)c1ccc(Cl)cc1C2=O`, the GI50 in the assay with COLO 205 colon was 2.1 µM; in the assay with HT29 colon it was 1.65 µM; with NCI-H522 lung it was 1.17 µM; in the assay with OVCAR-4 ovarian, 0.95 µM; in the assay with RPMI-8226 leukemia, 0.345 µM; with SF-295 CNS it was 1.67 µM. The GI50 in the assay with U251 CNS was 1.6 µM; in the assay with UACC-257 melanoma, 2.15 µM; in the assay on UACC-62 melanoma, 1.28 µM. Besides, the TGI was above 50 µM with COLO 205 colon; above 50 µM in the assay on HT29 colon; above 50 µM in the assay on NCI-H522 lung; above 50 µM in the assay on OVCAR-4 ovarian; 2.86 µM in the assay on RPMI-8226 leukemia; above 50 µM with SF-295 CNS. For the same compound, the TGI in the assay on U251 CNS, in the assay with UACC-257 melanoma and in the assay on UACC-62 melanoma was above 50 µM in each case.

Take `C/C=C(\C)C(=O)N[C@H]1C(O)C[C@]2(C)C3CC[C@@]4(C)C(CC[C@@H]4C(C)N(C)C)C3CCC2C1O` (some centres undefined): the GI50 was 1.74 µM with COLO 205 colon; 1.4 µM in the assay on HT29 colon; 11.2 µM in the assay on NCI-H522 lung; 8.52 µM in the assay with OVCAR-4 ovarian; 5.95 µM with RPMI-8226 leukemia; 8.83 µM in the assay on SF-295 CNS. In addition, the GI50 in the assay with SW-620 colon is 2.31 µM; with U251 CNS, 4.35 µM; with UACC-257 melanoma it was 3.22 µM; with UACC-62 melanoma, 2.18 µM. For the same compound, the TGI is 3.48 µM in the assay with COLO 205 colon; 5.18 µM in the assay with HT29 colon; above 43.7 µM in the assay on NCI-H522 lung; above 100 µM in the assay with OVCAR-4 ovarian; 25.5 µM in the assay on RPMI-8226 leukemia; 29 µM in the assay with SF-295 CNS. Further, the TGI amounted to 6.06 µM with SW-620 colon, 27.6 µM with U251 CNS, 9.75 µM in the assay on UACC-257 melanoma and 4.54 µM in the assay with UACC-62 melanoma.

In the case of `c1ccc(CNc2nc(Nc3ccccc3)nc3ccccc23)cc1`, the GI50 was 1.89 µM in the assay on COLO 205 colon; 2.06 µM in the assay on HT29 colon; 1.45 µM in the assay on NCI-H522 lung; 2.05 µM with OVCAR-4 ovarian; 1.41 µM in the assay on RPMI-8226 leukemia; 1.73 µM in the assay with SF-295 CNS. Moreover, the GI50 in the assay on U251 CNS was 1.52 µM; in the assay with UACC-257 melanoma it was 1.78 µM; in the assay on UACC-62 melanoma it was 1.48 µM. Also, the TGI in the assay on COLO 205 colon came to 3.77 µM; in the assay on HT29 colon, 4.88 µM; in the assay on NCI-H522 lung, 3.23 µM; in the assay on OVCAR-4 ovarian, 8.04 µM; in the assay on RPMI-8226 leukemia it was 4.42 µM; in the assay with SF-295 CNS, 3.77 µM. Besides, the TGI in the assay on U251 CNS was 2.91 µM; with UACC-257 melanoma, 3.78 µM; in the assay with UACC-62 melanoma, 2.95 µM.

Regarding `C=CCCCc1ccc(C(O)CCCCCCCCCCCC)o1` (centres undefined), the GI50 is 19.6 µM in the assay with COLO 205 colon; 17.1 µM in the assay with HT29 colon; 15.3 µM with NCI-H522 lung; 19.2 µM in the assay on RPMI-8226 leukemia; 18.2 µM in the assay with SF-295 CNS; 22.8 µM with SW-620 colon. For the same compound, the GI50 in the assay with U251 CNS was 15.5 µM; in the assay on UACC-257 melanoma it was 21.8 µM; in the assay with UACC-62 melanoma it was 17.7 µM. The TGI is 38.6 µM in the assay on COLO 205 colon; 35.4 µM with HT29 colon; 29.7 µM with NCI-H522 lung; 44.7 µM in the assay on RPMI-8226 leukemia; 46.6 µM with SF-295 CNS; 62 µM with SW-620 colon. For the same compound, the TGI was 29.1 µM in the assay on U251 CNS, 48.2 µM with UACC-257 melanoma and 43 µM with UACC-62 melanoma.

Turning to `CCOC(=O)C1=C(Nc2ccc(Cl)c(Cl)c2)OC/C1=N\NS(=O)(=O)c1ccc(C)cc1`, the TGI in the assay on COLO 205 colon is above 100 µM; in the assay with NCI-H522 lung it was 74.8 µM; in the assay on OVCAR-4 ovarian it was above 100 µM; in the assay with RPMI-8226 leukemia, 64.9 µM; in the assay on SF-295 CNS it was above 100 µM; in the assay on SW-620 colon, above 100 µM. Further, the TGI is above 100 µM in the assay on U251 CNS, 61.7 µM in the assay with UACC-257 melanoma and above 100 µM in the assay on UACC-62 melanoma.

Regarding `O=C1C=CC(O)C2C1CC13SSC4(CC5C(=O)C=CC(O)C5N4C1=O)C(=O)N23` (centres undefined), the TGI is 1.04 µM with COLO 205 colon; 0.544 µM with NCI-H522 lung; 4.89 µM in the assay with OVCAR-4 ovarian; 0.093 µM in the assay on RPMI-8226 leukemia; 2.94 µM in the assay with SF-295 CNS; 0.136 µM in the assay with SW-620 colon. The TGI in the assay on U251 CNS stood at 1.28 µM; with UACC-257 melanoma, 0.768 µM; in the assay with UACC-62 melanoma it was 0.622 µM.

Take `CN(C)C(=S)/N=c1\ss/c(=N\S(=O)(=O)c2ccccc2)n1N(C)C`: the TGI was above 100 µM with COLO 205 colon; 37.8 µM in the assay on NCI-H522 lung; above 100 µM in the assay with OVCAR-4 ovarian; above 100 µM with RPMI-8226 leukemia; above 100 µM in the assay with SW-620 colon; above 100 µM in the assay with U251 CNS. In addition, the TGI with UACC-257 melanoma and in the assay on UACC-62 melanoma was above 100 µM each time.

Regarding `CCn1c2ccccc2c2cc(C(O)c3cccc4ncccc34)ccc21` (centres undefined), the GI50 is 0.0427 µM in the assay with COLO 205 colon; 0.0357 µM with HT29 colon; 0.0212 µM in the assay with NCI-H522 lung; 0.318 µM with OVCAR-4 ovarian; 0.0724 µM in the assay with RPMI-8226 leukemia; 0.0335 µM in the assay with SF-295 CNS. The GI50 in the assay on SW-620 colon was 0.0399 µM; in the assay with U251 CNS, 0.0411 µM; with UACC-62 melanoma it was 0.0443 µM. In addition, the TGI is 0.251 µM in the assay on COLO 205 colon; 1.66 µM with HT29 colon; 0.107 µM in the assay on NCI-H522 lung; 87.3 µM with OVCAR-4 ovarian; 7.85 µM with RPMI-8226 leukemia; 22.1 µM in the assay with SF-295 CNS. The TGI in the assay with SW-620 colon was above 100 µM; with U251 CNS it was 3.56 µM; in the assay with UACC-62 melanoma, 2.32 µM.

Consider `Cc1cc2c(cc1N)C(C)C1(CCC(=O)N2Cc2ccccc2)OCCO1` (centres undefined), for which the TGI with HT29 colon, in the assay with NCI-H522 lung, with OVCAR-4 ovarian, in the assay on RPMI-8226 leukemia, with SF-295 CNS and in the assay with SW-620 colon was above 100 µM throughout. The TGI in the assay on U251 CNS, in the assay with UACC-257 melanoma and with UACC-62 melanoma was above 100 µM each time.

As for `COc1ccc(Nc2c3ccccc3nc3[nH]c4ccccc4c23)cc1`, the GI50 in the assay with COLO 205 colon is 17.8 µM; with HT29 colon it was 16.6 µM; with NCI-H522 lung, 41.5 µM; with RPMI-8226 leukemia, 2.33 µM; in the assay with SF-295 CNS it was 8.9 µM; in the assay with SW-620 colon, 9.89 µM. In addition, the GI50 was 11.7 µM with U251 CNS, 21.2 µM in the assay on UACC-257 melanoma and 16.2 µM with UACC-62 melanoma. For the same compound, the TGI with COLO 205 colon was above 50 µM; in the assay with HT29 colon it was above 50 µM; in the assay with NCI-H522 lung, above 50 µM; in the assay on RPMI-8226 leukemia, 33.4 µM; in the assay with SF-295 CNS it was above 50 µM; in the assay with SW-620 colon it was above 50 µM. The results for the TGI with U251 CNS, with UACC-257 melanoma and in the assay on UACC-62 melanoma were 42.8 µM, above 50 µM and above 50 µM, respectively.
